Experimental data as given in patent US20240336574A1 (LATIGO BIOTHERAPEUTICS, INC., priority 2021, published 2024).
Like-named read-outs stand apart in the source and are kept apart here.

Target: T1, recombinant human NaV1.8 stably transfected HEK cells (Homo sapiens, UniProt Q9Y5Y9)
T1 construct: expressed in transfected cells; host or cells: HEK cells, stably transfected
Test: Compound profiling on NaV1.8, human NaV1.8 cell line, SyncroPatch384PE automated patch clamp assay (Example 102, first set of compounds, Table 16)
Type: cell-based
Settings: human NaV1.8 HEK cells, Table 16 (first set of compounds)
Outline: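 Automated whole-cell patch clamp on HEK cells precultured at 30 °C one day before recording; CsF-based internal, 140 mM NaCl external. 10-point curve, 20–0.001 μM final, 0.1% DMSO, 5 min exposure. IC50 for resting (P1, −120 mV hold) and inactivated (P2, after 10 s at −40 mV) block, normalized to 250 μM tetracaine and DMSO.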

[1] = inactivated state block (P2 measurement), read-out: P2IC50
[2] = resting state block (P1 measurement), read-out: P1IC50

T1 sequence (Q9Y5Y9 whole entry): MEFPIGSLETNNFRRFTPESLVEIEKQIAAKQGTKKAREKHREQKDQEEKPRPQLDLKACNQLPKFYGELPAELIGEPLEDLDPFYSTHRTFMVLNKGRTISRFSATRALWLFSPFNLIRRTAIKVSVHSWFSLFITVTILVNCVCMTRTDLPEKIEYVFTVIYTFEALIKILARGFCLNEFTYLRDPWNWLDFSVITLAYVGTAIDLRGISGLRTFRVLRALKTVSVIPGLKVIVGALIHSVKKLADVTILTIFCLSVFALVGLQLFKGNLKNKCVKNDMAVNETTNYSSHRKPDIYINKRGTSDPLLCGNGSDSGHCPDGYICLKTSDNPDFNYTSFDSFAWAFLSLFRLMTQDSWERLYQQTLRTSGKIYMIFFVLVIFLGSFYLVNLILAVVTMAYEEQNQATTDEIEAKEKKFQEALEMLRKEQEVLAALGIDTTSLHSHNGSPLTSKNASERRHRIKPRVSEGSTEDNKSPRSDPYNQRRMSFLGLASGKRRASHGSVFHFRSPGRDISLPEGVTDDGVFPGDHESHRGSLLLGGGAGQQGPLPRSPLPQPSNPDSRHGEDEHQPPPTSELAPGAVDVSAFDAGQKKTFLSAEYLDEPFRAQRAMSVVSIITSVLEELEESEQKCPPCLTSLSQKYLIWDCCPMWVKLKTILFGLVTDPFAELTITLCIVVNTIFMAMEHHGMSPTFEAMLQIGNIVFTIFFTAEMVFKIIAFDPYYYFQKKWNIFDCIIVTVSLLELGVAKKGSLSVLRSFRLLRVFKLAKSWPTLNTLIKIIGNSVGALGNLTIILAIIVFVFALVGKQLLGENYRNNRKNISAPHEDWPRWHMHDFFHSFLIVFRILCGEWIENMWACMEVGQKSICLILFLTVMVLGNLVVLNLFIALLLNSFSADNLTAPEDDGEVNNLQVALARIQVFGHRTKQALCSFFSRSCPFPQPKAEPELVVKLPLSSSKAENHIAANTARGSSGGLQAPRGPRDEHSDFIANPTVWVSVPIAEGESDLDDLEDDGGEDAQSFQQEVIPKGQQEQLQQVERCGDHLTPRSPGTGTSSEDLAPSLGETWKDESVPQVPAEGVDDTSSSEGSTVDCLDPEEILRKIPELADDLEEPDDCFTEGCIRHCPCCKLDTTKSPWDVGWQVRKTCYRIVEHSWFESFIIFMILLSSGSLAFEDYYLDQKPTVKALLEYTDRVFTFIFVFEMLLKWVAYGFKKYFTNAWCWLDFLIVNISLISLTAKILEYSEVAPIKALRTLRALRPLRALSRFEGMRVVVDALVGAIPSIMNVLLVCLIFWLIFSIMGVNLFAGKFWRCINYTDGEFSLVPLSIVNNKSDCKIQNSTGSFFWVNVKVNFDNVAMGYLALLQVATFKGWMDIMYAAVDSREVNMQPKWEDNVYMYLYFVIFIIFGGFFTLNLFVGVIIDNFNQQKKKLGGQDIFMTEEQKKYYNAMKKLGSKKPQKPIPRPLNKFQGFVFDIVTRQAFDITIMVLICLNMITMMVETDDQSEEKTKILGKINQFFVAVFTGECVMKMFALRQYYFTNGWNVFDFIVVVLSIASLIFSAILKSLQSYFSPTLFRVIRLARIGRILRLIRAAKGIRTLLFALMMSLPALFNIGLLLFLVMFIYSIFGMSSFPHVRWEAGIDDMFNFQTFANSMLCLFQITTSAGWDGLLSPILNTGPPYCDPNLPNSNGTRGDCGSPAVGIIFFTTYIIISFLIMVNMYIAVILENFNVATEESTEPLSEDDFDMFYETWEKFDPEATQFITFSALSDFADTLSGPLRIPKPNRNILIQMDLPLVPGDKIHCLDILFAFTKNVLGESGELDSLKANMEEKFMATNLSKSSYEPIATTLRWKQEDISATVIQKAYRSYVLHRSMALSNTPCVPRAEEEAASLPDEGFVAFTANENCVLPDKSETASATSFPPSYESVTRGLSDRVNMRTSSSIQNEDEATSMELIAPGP

IC50 [1] [nM] | IC50 [2] [nM] | Structure (SMILES)
≤ 20 | ≤ 20 | CC(C)Oc1ccc(Oc2ncc(C(F)(F)F)cc2C(=O)Nc2cccc(S(C)(=N)=O)c2)cc1F (centres unmarked) [Compound 1647]
40 to 200 | 20 to 40 | Cc1c(C(F)(F)F)nnc(Oc2ccc(C#N)cc2)c1C(=O)Nc1cccc(S(C)(=N)=O)c1 (centres unmarked) [Compound 21]
≤ 20 | ≤ 20 | COc1cc(C#N)ccc1Oc1nc(C(F)(F)F)cc(C)c1C(=O)Nc1cccc([S@](C)(=N)=O)c1 [Compound 1730, (R)-2-(4-cyano-2-methoxyphenoxy)-4-methyl-N-(3-(S-methylsulfonimidoyl)phenyl)-6-(trifluoromethyl)nicotinamide]
40 to 200 | 40 to 200 | NC(=O)c1cccc(NC(=O)c2cc(C(F)(F)F)cnc2Oc2ccc(OC(F)F)cc2)c1 [Compound 1635]
200 to 500 | 200 to 500 | COc1ncc(C(N)=O)cc1Oc1ncc(C(F)(F)F)cc1C(=O)Nc1cccc(S(C)(=N)=O)c1 (centres unmarked) [Compound 1622]
≤ 20 | ≤ 20 | COc1cc(Cl)ccc1Oc1nnc(C(F)(F)F)c(C)c1C(=O)Nc1cccc(S(C)(=N)=O)c1 (single isomer, unassigned) [Compound 1481, 3-(4-chloro-2-methoxyphenoxy)-5-methyl-N-(3-(S-methylsulfonimidoyl)phenyl)-6-(trifluoromethyl)pyridazine-4-carboxamide]
≤ 20 | ≤ 20 | COc1cc(C#N)ccc1Oc1nnc(-c2ccc(C)cc2)c(C)c1C(=O)Nc1cccc(S(C)(=N)=O)c1 (centres unmarked) [Compound 1450, 3-(4-cyano-2-methoxy-phenoxy)-5-methyl-N-[3-(methylsulfonimidoyl)phenyl]-6-(p-tolyl)pyridazine-4-carboxamide]
≤ 20 | ≤ 20 | Cc1c(C(F)(F)F)nnc(Oc2ccc(OC(F)(F)F)cc2F)c1C(=O)Nc1cccc(S(C)(=O)=O)c1 [Compound 1467, 3-[2-fluoro-4-(trifluoromethoxy)phenoxy]-N-(3-methanesulfonylphenyl)-5-methyl-6-(trifluoromethyl)pyridazine-4-carboxamide]
≤ 20 | ≤ 20 | COc1c(Oc2nnc(C(F)(F)F)c(C)c2C(=O)Nc2cccc(S(C)(=N)=O)c2)ccc(Cl)c1F (single isomer, unassigned) [Compound 1490, 3-(4-chloro-3-fluoro-2-methoxy-phenoxy)-5-methyl-N-[3-(methylsulfonimidoyl)phenyl]-6-(trifluoromethyl)pyridazine-4-carboxamide]
≤ 20 | ≤ 20 | COc1c(Oc2nnc(C(F)(F)F)c(C)c2C(=O)Nc2cccc(S(C)(=N)=O)c2)ccc(F)c1F (single isomer, unassigned) [Compound 1473, 3-(3,4-difluoro-2-methoxy-phenoxy)-5-methyl-N-[3-(methylsulfonimidoyl)phenyl]-6-(trifluoromethyl)pyridazine-4-carboxamide]
200 to 500 | 200 to 500 | COc1cc(Oc2ncc(C(F)(F)F)cc2C(=O)Nc2cccc(S(C)(=N)=O)c2)ccc1C#N (centres unmarked) [Compound 1645]
40 to 200 | 40 to 200 | COC(=O)c1cccc(NC(=O)c2c(Oc3ccc(C#N)cc3OC)nnc(C(F)(F)F)c2C)c1 [Compound 1546, methyl 3-[[3-(4-cyano-2-methoxy-phenoxy)-5-methyl-6-(trifluoromethyl)pyridazine-4-carbonyl]amino]benzoate]
200 to 500 | 200 to 500 | Cc1c(C(F)(F)F)nnc(Oc2ccc(C(N)=O)cc2)c1C(=O)Nc1cccc(S(C)(=N)=O)c1 (centres unmarked) [Compound 1513, 3-(4-carbamoylphenoxy)-N-{3-[imino(methyl)oxo-λ^6-sulfanyl]phenyl}-5-methyl-6-(trifluoromethyl)pyridazine-4-carboxamide]
